Drawing on patent US20080200454A1, “CARBON-LINKED TETRAHYDRO-PYRAZOLO-PYRIDINE MODULATORS OF CATHEPSIN S” (priority 2007, published 2008), this text covers IC50 for 22 molecules.

Chain of Recombinant human cathepsin S (CatS) (P25774 115-331): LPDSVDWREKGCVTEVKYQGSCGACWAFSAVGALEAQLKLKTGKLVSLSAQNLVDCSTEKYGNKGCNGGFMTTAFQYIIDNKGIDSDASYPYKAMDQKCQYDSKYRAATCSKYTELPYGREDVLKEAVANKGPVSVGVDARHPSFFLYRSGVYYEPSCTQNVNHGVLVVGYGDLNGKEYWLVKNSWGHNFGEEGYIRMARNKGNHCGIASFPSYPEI

One assay has as its target Recombinant human cathepsin S (CatS) (Homo sapiens, UniProt P25774). Briefly: Recombinant human cathepsin S (CatS) inhibition assay, fluorogenic substrate Z-Valine-Valine-Arginine-AMC.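 Note: Baculovirus-expressed CatS in pH 5.0 sodium acetate buffer with DTT and NaCl, fluorescence read each minute over 20 min, inhibition derived from rate slope.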
Settings: not given
With `CC(=O)N1CCc2c(c(-c3ccc(Cl)c(C#Cc4ccc(CNCc5ccc(Cl)cc5)cc4)c3)nn2CCCN2CCOC[C@@H]2C)C1` [Example 400, 1-(4-{[5-(5-Acetyl-1-{3-[(3S)-3-methylmorpholin-4-yl]propyl}-4,5,6,7-tetrahydro-1H-pyrazolo[4,3-c]pyridin-3-yl)-2-chlorophenyl]ethynyl}phenyl)-N-[(4-chlorophenyl)methyl]methanamine], the IC50 was 190 nM. Same read-out and setting: next, `CS(=O)(=O)N1CCc2c(c(-c3ccc(Cl)c(C#Cc4nnc5n4CCNC5)c3)nn2CCCN2CCOCC2)C1` [Example 403, 3-({2-Chloro-5-[5-(methylsulfonyl)-1-(3-morpholin-4-ylpropyl)-4,5,6,7-tetrahydro-1H-pyrazolo[4,3-c]pyridin-3-yl]phenyl}ethynyl)-5,6,7,8-tetrahydro[1,2,4]triazolo[4,3-a]pyrazine]: 8520 nM; `CC1C(=O)NCCN1CCCn1nc(-c2ccc(Cl)c(C#Cc3ccc(CNCc4ccc(Cl)cc4)cc3)c2)c2c1CCN(S(C)(=O)=O)C2` (stereo not shown) [Example 406, 4-{3-[3-(4-Chloro-3-{[4-({[(4-chlorophenyl)methyl]amino}methyl)phenyl]ethynyl}phenyl)-5-(methylsulfonyl)-4,5,6,7-tetrahydro-1H-pyrazolo[4,3-c]pyridin-1-yl]propyl}-3-methylpiperazin-2-one]: 460 nM; `CS(=O)(=O)N1CCc2c(c(-c3ccc(Cl)c(C#Cc4ccc(CNCc5ccc(Cl)cc5)cc4)c3)nn2CCCN2CCN(c3cccc(O)c3)CC2)C1` [Example 409, 3-(4-{3-[3-(4-Chloro-3-{[4-({[(4-chlorophenyl)methyl]amino}methyl)phenyl]ethynyl}phenyl)-5-(methylsulfonyl)-4,5,6,7-tetrahydro-1H-pyrazolo[4,3-c]pyridin-1-yl]propyl}piperazin-1-yl)phenol]: 20 nM. With `CS(=O)(=O)N1CCc2c(c(-c3ccc(Cl)c(C#Cc4ccc(CNCc5ccc(Cl)cc5)cc4)c3)nn2CCCN2CCN(c3ccc(O)cc3)CC2)C1` [Example 410, 4-(4-{3-[3-(4-Chloro-3-{[4-({[(4-chlorophenyl)methyl]amino}methyl)phenyl]ethynyl}phenyl)-5-(methylsulfonyl)-4,5,6,7-tetrahydro-1H-pyrazolo[4,3-c]pyridin-1-yl]propyl}piperazin-1-yl)phenol], the IC50 was determined as 40 nM. Regarding `CC(=O)N1CCc2c(c(-c3ccc(Cl)c(C#Cc4ccc(CNCc5ccc(Cl)cc5)cc4)c3)nn2CCCN2CCSCC2)C1` [Example 412, 1-[4-({5-[5-Acetyl-1-(3-thiomorpholin-4-ylpropyl)-4,5,6,7-tetrahydro-1H-pyrazolo[4,3-c]pyridin-3-yl]-2-chlorophenyl}ethynyl)phenyl]-N-[(4-chlorophenyl)methyl]methanamine], the IC50 came out at 160 nM. Still for that read-out and setting: as for `NC(=O)C(=O)N1CCc2c(c(-c3ccc(Cl)c(C#Cc4ccc(CNCc5ccc(Cl)cc5)cc4)c3)nn2CCCN2CCSCC2)C1` [Example 414, 2-[3-(4-Chloro-3-{[4-({[(4-chlorophenyl)methyl]amino}methyl)phenyl]ethynyl}phenyl)-1-(3-thiomorpholin-4-ylpropyl)-1,4,6,7-tetrahydro-5H-pyrazolo[4,3-c]pyridin-5-yl]-2-oxoacetamide], the figure is 30 nM; as for `CS(=O)(=O)N1CCc2c(c(-c3ccc(Cl)c(C#Cc4ccc5c(c4)CNCC5)c3)nn2CCCN2CCN(C3CC3)CC2)C1` [Example 415, 7-[(2-Chloro-5-{1-[3-(4-cyclopropylpiperazin-1-yl)propyl]-5-(methylsulfonyl)-4,5,6,7-tetrahydro-1H-pyrazolo[4,3-c]pyridin-3-yl}phenyl)ethynyl]-1,2,3,4-tetrahydroisoquinoline], 90 nM; as for `COC(=O)C1COCCN1CCCn1nc(-c2ccc(Cl)c(C#Cc3ccc(CNCc4ccc(Cl)cc4)cc3)c2)c2c1CCN(S(C)(=O)=O)C2` (stereo not shown) [Example 418, Methyl 4-{3-[3-(4-chloro-3-{[4-({[(4-chlorophenyl)methyl]amino}methyl)phenyl]ethynyl}phenyl)-5-(methylsulfonyl)-4,5,6,7-tetrahydro-1H-pyrazolo[4,3-c]pyridin-1-yl]propyl}morpholine-3-carboxylate], 1030 nM. On to `CS(=O)(=O)N1CCc2c(c(-c3ccc(Cl)c(C#Cc4ccc(CNCc5ccc(Cl)cc5)cc4)c3)nn2CCCN2CCOCC2CO)C1` (stereo not shown) [Example 419, (4-{3-[3-(4-Chloro-3-{[4-({[(4-chlorophenyl)methyl]amino}methyl)phenyl]ethynyl}phenyl)-5-(methylsulfonyl)-4,5,6,7-tetrahydro-1H-pyrazolo[4,3-c]pyridin-1-yl]propyl}morpholin-3-yl)methanol], for which the half-inhibitory concentration (IC50) came to 180 nM. Same read-out and setting: as for `CS(=O)(=O)N1CCc2c(c(-c3ccc(Cl)c(C#Cc4ccc(CNCc5ccc(Cl)cc5)cc4)c3)nn2CCCN2C[C@@H]3C[C@H]2CO3)C1` [Example 420, 1-[4-({2-Chloro-5-[5-(methylsulfonyl)-1-{3-[(1S,4S)-2-oxa-5-azabicyclo[2.2.1]hept-5-yl]propyl}-4,5,6,7-tetrahydro-1H-pyrazolo[4,3-c]pyridin-3-yl]phenyl}ethynyl)phenyl]-N-[(4-chlorophenyl)methyl]methanamine], the figure is 100 nM.

The assay is the same for the next values; noted with them: CatS IC50.
On to `C[C@H]1COCCN1CCCn1nc(-c2ccc(Cl)c(C#Cc3ccc(CNCc4ccc(Cl)cc4)cc3)c2)c2c1CCN(C(N)=O)C2` [Example 401, 3-(4-Chloro-3-{[4-({[(4-chlorophenyl)methyl]amino}methyl)phenyl]ethynyl}phenyl)-1-{3-[(3S)-3-methylmorpholin-4-yl]propyl}-1,4,6,7-tetrahydro-5H-pyrazolo[4,3-c]pyridine-5-carboxamide], for which the IC50 amounted to 110 nM. In the case of `C[C@H]1COCCN1CCCn1nc(-c2ccc(Cl)c(C#Cc3ccc(CNCc4ccc(Cl)cc4)cc3)c2)c2c1CCN(C(=O)CO)C2` [Example 402, 2-[3-(4-Chloro-3-{[4-({[(4-chlorophenyl)methyl]amino}methyl)phenyl]ethynyl}phenyl)-1-{3-[(3S)-3-methylmorpholin-4-yl]propyl}-1,4,6,7-tetrahydro-5H-pyrazolo[4,3-c]pyridin-5-yl]-2-oxoethanol], the IC50 was 150 nM. For the molecule `CS(=O)(=O)N1CCc2c(c(-c3ccc(Cl)c(C#Cc4ccc(CNCc5cccnc5)cc4)c3)nn2CCCN2CCOCC2)C1` [Example 404, 1-[4-({2-Chloro-5-[5-(methylsulfonyl)-1-(3-morpholin-4-ylpropyl)-4,5,6,7-tetrahydro-1H-pyrazolo[4,3-c]pyridin-3-yl]phenyl}ethynyl)phenyl]-N-(pyridin-3-ylmethyl)methanamine], the IC50 worked out at 370 nM.

With `CS(=O)(=O)N1CCc2c(c(-c3ccc(Cl)c(C#Cc4ccc(CNCc5ccncc5)cc4)c3)nn2CCCN2CCOCC2)C1` [Example 405, 1-[4-({2-Chloro-5-[5-(methylsulfonyl)-1-(3-morpholin-4-ylpropyl)-4,5,6,7-tetrahydro-1H-pyrazolo[4,3-c]pyridin-3-yl]phenyl}ethynyl)phenyl]-N-(pyridin-4-ylmethyl)methanamine], the IC50 stood at 290 nM. On the same count and under the same terms, as for `CS(=O)(=O)N1CCc2c(c(-c3ccc(Cl)c(C#Cc4ccc(CNCc5ccc(Cl)cc5)cc4)c3)nn2CCCN2CCN(c3ccccc3O)CC2)C1` [Example 407, 2-(4-{3-[3-(4-Chloro-3-{[4-({[(4-chlorophenyl)methyl]amino}methyl)phenyl]ethynyl}phenyl)-5-(methylsulfonyl)-4,5,6,7-tetrahydro-1H-pyrazolo[4,3-c]pyridin-1-yl]propyl}piperazin-1-yl)phenol], the figure is 20 nM; as for `CS(=O)(=O)N1CCc2c(c(-c3ccc(Cl)c(C#Cc4ccc(CNCc5ccccn5)cc4)c3)nn2CCCN2CCOCC2)C1` [Example 408, 1-[4-({2-Chloro-5-[5-(methylsulfonyl)-1-(3-morpholin-4-ylpropyl)-4,5,6,7-tetrahydro-1H-pyrazolo[4,3-c]pyridin-3-yl]phenyl}ethynyl)phenyl]-N-(pyridin-2-ylmethyl)methanamine], 280 nM.

For `O=C(CO)N1CCc2c(c(-c3ccc(Cl)c(C#Cc4ccc(CNCc5ccc(Cl)cc5)cc4)c3)nn2CCCN2CCSCC2)C1` [Example 413, 2-[3-(4-Chloro-3-{[4-({[(4-chlorophenyl)methyl]amino}methyl)phenyl]ethynyl}phenyl)-1-(3-thiomorpholin-4-ylpropyl)-1,4,6,7-tetrahydro-5H-pyrazolo[4,3-c]pyridin-5-yl]-2-oxoethanol], the concentration for half-maximal inhibition (IC50) is 100 nM. As for `CS(=O)(=O)N1CCc2c(c(-c3ccc(Cl)c(C#Cc4ccc(CNCc5ccc(Cl)cc5)cc4)c3)nn2CCCN2CCN(c3ccncc3)CC2)C1` [Example 416, 1-{4-[(2-Chloro-5-{5-(methylsulfonyl)-1-[3-(4-pyridin-4-ylpiperazin-1-yl)propyl]-4,5,6,7-tetrahydro-1H-pyrazolo[4,3-c]pyridin-3-yl}phenyl)ethynyl]phenyl}-N-[(4-chlorophenyl)methyl]methanamine], the IC50 was 70 nM. Still for that read-out and setting: next, `CS(=O)(=O)N1CCc2c(c(-c3ccc(Cl)c(C#Cc4ccc(CNCc5ccc(Cl)cc5)cc4)c3)nn2CCCN2CCN(c3cccnc3)CC2)C1` [Example 417, 1-{4-[(2-Chloro-5-{5-(methylsulfonyl)-1-[3-(4-pyridin-3-ylpiperazin-1-yl)propyl]-4,5,6,7-tetrahydro-1H-pyrazolo[4,3-c]pyridin-3-yl}phenyl)ethynyl]phenyl}-N-[(4-chlorophenyl)methyl]methanamine]: 20 nM; `CS(=O)(=O)N1CCc2c(c(-c3ccc(Cl)c(C#Cc4ccc(CNCc5cccs5)cc4)c3)nn2CCCN2CCOCC2)C1` [Example 421, 1-[4-({2-Chloro-5-[5-(methylsulfonyl)-1-(3-morpholin-4-ylpropyl)-4,5,6,7-tetrahydro-1H-pyrazolo[4,3-c]pyridin-3-yl]phenyl}ethynyl)phenyl]-N-(2-thienylmethyl)methanamine]: 190 nM. Turning to `CS(=O)(=O)N1CCc2c(c(-c3ccc(Cl)c(C#Cc4ccc(CNCc5ccsc5)cc4)c3)nn2CCCN2CCOCC2)C1` [Example 422, 1-[4-({2-Chloro-5-[5-(methylsulfonyl)-1-(3-morpholin-4-ylpropyl)-4,5,6,7-tetrahydro-1H-pyrazolo[4,3-c]pyridin-3-yl]phenyl}ethynyl)phenyl]-N-(3-thienylmethyl)methanamine], the IC50 is 170 nM.

The IC50 is the concentration that gives 50% inhibition.
